Results on 19 compounds are retold here after US9133187B2, “Serine/threonine kinase inhibitors” (ARRAY BIOPHARMA INC., priority 2011, dated 2015).

Assay [1] has as its target human ERK-2 (Mitogen Activated Kinase 1) (Homo sapiens (Human), UniProt P28482). Description: ERK-2 Enzymatic Assay. It is filed as biochemical. Particulars: 5 nM ERK-2, 25 μM ATP, Omnia peptide S/T17; read-out: ERK Inhibition IC50. The protocol: Compounds were tested in an enzymatic assay using human ERK-2 (Mitogen Activated Kinase 1), recombinantly expressed as an n-terminal 6-His fusion protein in E. coli and corresponding to aa 8-360. The substrate used was the fluorescent Omnia peptide S/T17 (Invitrogen of Carlsbad, Calif.; Cat. KNZ1171C). Test compounds were diluted in DMSO in 3-fold serial dilutions at 100× final concentrations. […] The assay was run at ambient temperature in a white 384-well polypropylene plate (Nunc, Inc of Naperville, Ill.; Cat. 267462) collecting data every 50 seconds for approximately 30 minutes on an Envision plate reader (PerkinElmer, Inc. of Waltham, Mass.); Excitation 340 nm/Emission 495 nm. The data collected from each well was fit to a straight line and the resulting rates were used to calculate percent of control. Percent of control was plotted against compound concentration and IC50 values were determined using a four-parameter fit.

The subject of assay [2] is PMA-stimulated P90RSK(Ser380) phosphorylation in HepG2 cells. Description: Cellular P90RSK(Ser380) Phosphorylation Assay. It is filed as cell-based. To be noted: Homo sapiens, 1.5 h compound incubation, PMA stimulation, pP90RSK(Ser380) normalized to GAPDH, read-out: Cell Assay IC50. How it is done: Inhibition of PMA-stimulated P90RSK(Ser380) phosphorylation was determined by the following in vitro cellular mechanistic assay, which comprises incubating cells with a compound for 1.5 hours and quantifying fluorescent pP90RSK(Ser380) signal on fixed cells and normalizing to GAPDH signal.
Materials and Methods: HepG2 cells were obtained from ATCC and grown in DMEM supplemented with 10% fetal bovine serum. Cells were plated in 96-well plates at 35,000 cells/well and allowed to attach overnight at 37° C./5% CO2. Diluted compounds were then added at a final concentration of 0.5% DMSO. After 1.5 hour compound incubation, cells were stimulated with the addition of PMA (phorbol 12-myristate 13-acetate) at a final concentration of 100 ng/mL; the PMA stimulation was a 30-minute incubation at 37° C./5% CO2. After the 30-minute PMA stimulation, cells were washed with PBS and fixed in 3.7% formaldehyde in PBS at room temperature for 15-20 minutes. This was followed by another wash in PBS and then permeabilization in 100% MeOH at room temperature for 10-15 minutes. Following the permeabilization incubation, cells were washed in PBS/0.05% Tween-20, followed by a block in Odyssey blocking buffer (LI-COR Biosciences) for at least 1 hour. Antibodies to phosphorylated P90RSK(Ser380) (Cell Signaling #9335, rabbit monoclonal) and GAPDH (Fitzgerald 10R-G109a, mouse monoclonal) were added to the cells and incubated overnight at 4° C. pP90RSK(Ser380) antibody was used at a 1:250 dilution; GAPDH was used at a 1:10,000 dilution. After washing with PBS/0.05% Tween-20, the cells were incubated with fluorescently-labeled secondary antibodies (Anti-rabbit-Alexa Flour680, Invitrogen Cat#A21109; Anti-mouse-IRDye800CW, Rockland Inc. Cat#610-131-121) for 1 hour. Both secondary antibodies were used at a 1:1000 dilution. Cells were then washed and analyzed for fluorescence at both wavelengths using the Odyssey Infrared Imaging System (LI-COR Biosciences). Phosphorylated P90RSK(Ser380) signal was normalized to GAPDH signal. Representative date is in TABLE III (infra).

Sequence of human ERK-2 (Mitogen Activated Kinase 1) (P28482 8-360): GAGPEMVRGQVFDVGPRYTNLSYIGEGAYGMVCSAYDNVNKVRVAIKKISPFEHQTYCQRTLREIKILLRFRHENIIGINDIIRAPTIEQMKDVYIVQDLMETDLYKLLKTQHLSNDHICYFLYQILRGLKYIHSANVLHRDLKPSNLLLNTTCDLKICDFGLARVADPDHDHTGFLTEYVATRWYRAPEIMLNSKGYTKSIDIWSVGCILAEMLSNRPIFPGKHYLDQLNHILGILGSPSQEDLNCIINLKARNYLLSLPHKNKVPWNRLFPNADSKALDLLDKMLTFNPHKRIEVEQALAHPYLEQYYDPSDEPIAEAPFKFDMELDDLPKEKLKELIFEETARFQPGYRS

Usually IC50 stands for the point on the concentration scale where inhibition reaches its midpoint. As to `Cc1noc(C)c1Nc1ncc2c(n1)CN(C(=O)N[C@H](CO)c1ccc(F)c(Cl)c1)CC2` [II-34, 2-(3,5-Dimethyl-isoxazol-4-ylamino)-5,8-dihydro-6H-pyrido[3,4-d]pyrimidine-7-carboxylic acid [(S)-1-(3-chloro-4-fluoro-phenyl)-2-hydroxy-ethyl]-amide], the IC50 was 25.9 nM in assay [1] and 13200 nM in assay [2].

Turning to `CC(C)Nc1ncc2c(n1)CN(C(=O)N[C@@H](c1ccc(F)c(Cl)c1)[C@H](C)O)CC2` [II-40, 2-Isopropylamino-5,8-dihydro-6H-pyrido[3,4-d]pyrimidine-7-carboxylic acid [(1S,2S)-1-(3-chloro-4-fluoro-phenyl)-2-hydroxy-propyl]-amide], the values for the IC50 in assay [1] and in assay [2] were 3.23 nM and 87.3 nM, respectively.

Consider `CC(C)Nc1ncc2c(n1)CN(C(=O)N[C@H](CCN)c1ccc(C(F)(F)F)cc1)CC2` [Compound I-119, (R)—N-(3-amino-1-(4-(trifluoromethyl)phenyl)propyl)-2-(isopropylamino)-5,6-dihydropyrido[3,4-d]pyrimidine-7(8H)-carboxamide], for which the IC50 was 1.8 nM in assay [1] and 694 nM in assay [2].

With `C[C@@H](CO)Nc1ncc2c(n1)CN(C(=O)N[C@H](C)c1ccc(Cl)c(F)c1)CC2` [Compound I-21, N—((R)-1-(4-chloro-3-fluorophenyl)ethyl)-2-((S)-1-hydroxypropan-2-ylamino)-5,6-dihydropyrido[3,4-d]pyrimidine-7(8H)-carboxamide], the values for the IC50 in assay [1] and in assay [2] were 1.6 nM and 55.2 nM, respectively.

As to `Cc1nccc(Nc2ncc3c(n2)CN(C(=O)N[C@H](C)c2ccc(Cl)c(Cl)c2)CC3)n1` [II-126, 2-(2-Methyl-pyrimidin-4-ylamino)-5,8-dihydro-6H-pyrido[3,4-d]pyrimidine-7-carboxylic acid [(R)-1-(3,4-dichloro-phenyl)-ethyl]-amide], the values for the concentration for half-maximal inhibition (IC50) in assay [1] and in assay [2] were 6.9 nM and 141 nM, respectively.

`O=C(NC(c1ccc(Cl)c(F)c1)c1nnco1)N1CCc2cnc(NC3CCOCC3)nc2C1` (stereo not shown) [Compound I-9, N-((4-chloro-3-fluorophenyl)(1,3,4-oxadiazol-2-yl)methyl)-2-(tetrahydro-2H-pyran-4-ylamino)-5,6-dihydropyrido[3,4-d]pyrimidine-7(8H)-carboxamide]: the IC50 in assay [1] is 2.4 nM; in assay [2] it was 71.7 nM.

Regarding `C[C@@H](NC(=O)N1CCc2cnc(N[C@H](CO)Cc3ccccc3)nc2C1)c1ccc(Cl)c(Cl)c1` [II-111, 2-((S)-1-Hydroxymethyl-2-phenyl-ethylamino)-5,8-dihydro-6H-pyrido[3,4-d]pyrimidine-7-carboxylic acid [(R)-1-(3,4-dichloro-phenyl)-ethyl]-amide], the IC50 in assay [1] was 4.7 nM; in assay [2], 693 nM.

For `CNC[C@@H](NC(=O)N1CCc2cnc(Nc3ccc(F)cc3)nc2C1)c1ccc(F)c(Cl)c1` [II-35, 2-(4-Fluoro-phenylamino)-5,8-dihydro-6H-pyrido[3,4-d]pyrimidine-7-carboxylic acid [(S)-1-(3-chloro-4-fluoro-phenyl)-2-methylamino-ethyl]-amide], the 50% inhibitory concentration (IC50) in assay [1] was found to be 21.5 nM; in assay [2], 160 nM.

Turning to `N#CC[C@@H](NC(=O)N1CCc2cnc(NC3CCOCC3)nc2C1)c1ccc(F)c(Cl)c1` [Compound I-59, (R)—N-(1-(3-chloro-4-fluorophenyl)-2-cyanoethyl)-2-(tetrahydro-2H-pyran-4-ylamino)-5,6-dihydropyrido[3,4-d]pyrimidine-7(8H)-carboxamide], the IC50 in assay [1] was 0.6 nM; in assay [2], 85.5 nM.

As to `O=C(N1CCc2cnc(NC3CCOCC3)nc2C1)N1CCNCC1c1ccccc1` (stereo not shown) [Compound I-141, (2-Phenylpiperazin-1-yl)(2-(tetrahydro-2H-pyran-4-ylamino)-5,6-dihydropyrido[3,4-d]pyrimidin-7(8H)-yl)methanone], the IC50 in assay [1] is 108 nM.

Regarding `COCC(=O)OC[C@@H](NC(=O)N1CCc2cnc(NC3CCOCC3)nc2C1)c1ccc(F)c(Cl)c1` [Compound I-56, (S)-2-(3-chloro-4-fluorophenyl)-2-(2-(tetrahydro-2H-pyran-4-ylamino)-5,6,7,8-tetrahydropyrido[3,4-d]pyrimidine-7-carboxamido)ethyl 2-methoxyacetate], the figures for the IC50 in assay [1] and in assay [2] were 5.3 nM and 66.2 nM, respectively.

For `O=C(N[C@@H](c1ccc(Cl)c(F)c1)c1ccno1)N1CCc2cnc(NC3CCOCC3)nc2C1` [Compound I-12, (S)—N-((4-chloro-3-fluorophenyl)(isoxazol-5-yl)methyl)-2-(tetrahydro-2H-pyran-4-ylamino)-5,6-dihydropyrido[3,4-d]pyrimidine-7(8H)-carboxamide], the figures for the IC50 in assay [1] and in assay [2] were 4 nM and 235 nM, respectively.

Turning to `CC(C)Nc1ncc2c(n1)CN(C(=O)N[C@H](CCO)c1ccc(C(F)(F)F)c(F)c1)CC2` [II-72, 2-Isopropylamino-5,8-dihydro-6H-pyrido[3,4-d]pyrimidine-7-carboxylic acid [(R)-1-(3-fluoro-4-trifluoromethyl-phenyl)-3-hydroxy-propyl]-amide], the IC50 was 7.2 nM in assay [1] and 208 nM in assay [2].

On to `CC1CC(Nc2ncc3c(n2)CN(C(=O)N[C@H](CO)c2ccc(Cl)c(F)c2)CC3)CCO1` (stereo partly shown) [II-366], for which the IC50 in assay [2] turned out to be 91 nM.

Consider `CC(C)Nc1ncc2c(n1)CN(C(=O)NC[C@H](c1ccc(C(F)(F)F)c(F)c1)N1CCCC1)CC2` [II-102, 2-Isopropylamino-5,8-dihydro-6H-pyrido[3,4-d]pyrimidine-7-carboxylic acid [(S)-2-(3-fluoro-4-trifluoromethyl-phenyl)-2-pyrrolidin-1-yl-ethyl]-amide], for which the IC50 in assay [1] worked out at 409 nM.

For `CC(C)OC[C@@H](NC(=O)N1CCc2cnc(N[C@H]3CC[C@H](O)C3)nc2C1)c1ccc(F)c(Cl)c1` [II-95, 2-((1S,3S)-3-Hydroxy-cyclopentylamino)-5,8-dihydro-6H-pyrido[3,4-d]pyrimidine-7-carboxylic acid [(S)-1-(3-chloro-4-fluoro-phenyl)-2-isopropoxy-ethyl]-amide], the concentration for half-maximal inhibition (IC50) in assay [2] was 551 nM.

Regarding `CC(C)Nc1ncc2c(n1)CN(C(=O)N[C@@H](c1ccc(C(F)(F)F)c(F)c1)c1cccc(=O)[nH]1)CC2` [II-99, 2-Isopropylamino-5,8-dihydro-6H-pyrido[3,4-d]pyrimidine-7-carboxylic acid [(S)-(3-fluoro-4-trifluoromethyl-phenyl)-(6-oxo-1,6-dihydro-pyridin-2-yl)-methyl]-amide], in assay [2], the concentration for half-maximal inhibition (IC50) turned out to be 5600 nM.

In the case of `O=C(N[C@H](CO)c1ccc(F)c(Cl)c1)N1CCc2cnc(N[C@H](CO)Cc3ccccc3)nc2C1` [II-17, 2-((S)-1-Hydroxymethyl-2-phenyl-ethylamino)-5,8-dihydro-6H-pyrido[3,4-d]pyrimidine-7-carboxylic acid [(S)-1-(3-chloro-4-fluoro-phenyl)-2-hydroxy-ethyl]-amide], in assay [2], the half-maximal inhibitory concentration (IC50) was 1100 nM.

In the case of `O=C(N1CCc2cnc(NC3CCOCC3)nc2C1)N1CCCC1c1nccs1` (stereo not shown) [Compound I-139, (2-(tetrahydro-2H-pyran-4-ylamino)-5,6-dihydropyrido[3,4-d]pyrimidin-7(8H)-yl)(2-(thiazol-2-yl)pyrrolidin-1-yl)methanone], the IC50 in assay [1] amounted to 264 nM.
